Assay results reported in patent US12180187B2, “1-phenyl-5-azinylpyrazolyl-3-oxyalkyl acids and their use for controlling unwanted plant growth” (BAYER AKTIENGESELLSCHAFT, priority 2019, dated 2024).

How the values were obtained:
POAAN [1] = experiment: Post-emergence action against POAAN, 1.28 kg/ha; format: in vivo, Poa annua; conditions: dosage 1280 g/ha, visual rating about 3 weeks after treatment vs untreated controls
Protocol: (§1) • a) Seeds of mono- and dicotyledonous weed plants are placed in plastic pots in sandy loam soil (twin sowing with one species each of mono- or dicotyledonous weed plants per pot), covered with soil and cultivated in a greenhouse under controlled growth conditions. 2 to 3 weeks after sowing, the test plants are treated at the one-leaf stage. The compounds of the invention, formulated in the form of wettable powders (WP) or as emulsion concentrates (EC), are applied to the green parts of the plants as aqueous suspension or emulsion with addition of 0.5% additive at a water application rate equivalent to 600 litres per hectare. After the test plants have been kept in the greenhouse under optimum growth conditions for about 3 weeks, the activity of the preparations is rated visually in comparison to untreated controls. For example, 100% activity=the plants have died, 0% activity=like control plants. As shown by the results, compounds of the general formula (I) of the invention, in post-emergence treatment, have very good herbicidal efficacy (90% to 100% herbicidal action) against harmful plants such as Abutilon theophrasti, Digitaria sanguinalis, Echinochloa crus-galli, Matricaria inodora, Poa annua, at an application rate of 1.28 kg of active substance per hectare.

MATIN [2] = experiment: Pre-emergence action against MATIN, 1280 g/ha; format: in vivo, Tripleurospermum inodorum (Matricaria inodora); conditions: scored visually after about 3 weeks vs untreated controls (100% = plants have died)
Text: (§2) 1. Pre-Emergence Herbicidal Effect and Crop Plant Compatibility a) Seeds of mono- and dicotyledonous weed plants are placed in plastic pots in sandy loam soil (doubly sown with one species each of mono- or dicotyledonous weed plants per pot) and covered with soil. The compounds of the invention, formulated in the form of wettable powders (WP) or as emulsion concentrates (EC), are then applied onto the surface of the covering soil as aqueous suspension or emulsion with addition of 0.5% additive at a water application rate equivalent to 600 litres per hectare. After the treatment, the pots are placed in a greenhouse and kept under good growth conditions for the trial plants. After about 3 weeks, the effect of the preparations is scored visually in comparison with untreated controls as percentages. For example, 100% activity=the plants have died, 0% activity=like control plants. 1. Pre-Emergence Effectiveness Tables 1 to 12 below show the effects of selected compounds of the general formula (I) according to Tables 1 and 2 on various harmful plants and at an application rate corresponding to 1280 g/ha, which were obtained by the experimental procedure mentioned above.

ALOMY [3] = experiment: Pre-emergence action against ALOMY, 1280 g/ha; format: in vivo, Alopecurus myosuroides; conditions: visual scoring after about 3 weeks vs untreated controls, 100% = plants have died, 0% = like control plants
Text: as §2

VERPE [4] = experiment: Pre-emergence action against VERPE, 1280 g/ha; format: in vivo, Veronica persica; conditions: scored visually after about 3 weeks vs untreated controls (100% = plants have died)
Text: as §2

ALOMY [5] = experiment: Post-emergence action against ALOMY, 1.28 kg/ha; format: in vivo, Alopecurus myosuroides; conditions: dosage 1280 g/ha, visual rating about 3 weeks after treatment vs untreated controls
Protocol: as §1

POAAN [6] = experiment: Pre-emergence action against POAAN, 1280 g/ha; format: in vivo, Poa annua; conditions: visual scoring after about 3 weeks vs untreated controls, 100% = plants have died, 0% = like control plants
Text: as §2

DIGSA [7] = experiment: Pre-emergence action against DIGSA, 1280 g/ha; format: in vivo, Digitaria sanguinalis; conditions: visual scoring after about 3 weeks vs untreated controls, 100% = plants have died, 0% = like control plants
Text: as §2

VERPE [8] = experiment: Post-emergence action against VERPE, 1.28 kg/ha; format: in vivo, Veronica persica; conditions: dosage 1280 g/ha, visual rating about 3 weeks after treatment vs untreated controls (100% = plants died)
Protocol: as §1

STEME [9] = experiment: Pre-emergence action against STEME, 1280 g/ha; format: in vivo, Stellaria media; conditions: scored visually after about 3 weeks vs untreated controls (100% = plants have died)
Text: as §2

AMARE [10] = experiment: Post-emergence action against AMARE, 1.28 kg/ha; format: in vivo, Amaranthus retroflexus; conditions: dosage 1280 g/ha, visual rating about 3 weeks after treatment vs untreated controls (100% = plants died)
Protocol: as §1

AMARE [11] = experiment: Pre-emergence action against AMARE, 1280 g/ha; format: in vivo, Amaranthus retroflexus; conditions: scored visually after about 3 weeks vs untreated controls (100% = plants have died)
Text: as §2

DIGSA [12] = experiment: Post-emergence action against DIGSA, 1.28 kg/ha; format: in vivo, Digitaria sanguinalis; conditions: dosage 1280 g/ha, visual rating about 3 weeks after treatment vs untreated controls
Protocol: as §1

SETVI = experiment: Pre-emergence action against SETVI, 1280 g/ha; format: in vivo, Setaria viridis; conditions: visual scoring after about 3 weeks vs untreated controls, 100% = plants have died, 0% = like control plants
Text: as §2

MATIN [13] = experiment: Post-emergence action against MATIN, 1.28 kg/ha; format: in vivo, Tripleurospermum inodorum (Matricaria inodora); conditions: dosage 1280 g/ha, visual rating about 3 weeks after treatment vs untreated controls (100% = plants died)
Protocol: as §1

LOLRI = experiment: Pre-emergence action against LOLRI, 1280 g/ha; format: in vivo, Lolium rigidum; conditions: visual scoring after about 3 weeks vs untreated controls, 100% = plants have died, 0% = like control plants
Text: as §2

STEME [14] = experiment: Post-emergence action against STEME, 1.28 kg/ha; format: in vivo, Stellaria media; conditions: dosage 1280 g/ha, visual rating about 3 weeks after treatment vs untreated controls (100% = plants died)
Protocol: as §1

ECHCG = experiment: Pre-emergence action against ECHCG, 1280 g/ha; format: in vivo, Echinochloa crus-galli; conditions: visual scoring after about 3 weeks vs untreated controls, 100% = plants have died, 0% = like control plants
Text: as §2

SMILES	Post-emergence action against POAAN (POAAN [1]) [%]	Pre-emergence action against MATIN (MATIN [2]) [%]	Pre-emergence action against VERPE (VERPE [4]) [%]	Post-emergence action against ALOMY (ALOMY [5]) [%]	Pre-emergence action against POAAN (POAAN [6]) [%]	Pre-emergence action against DIGSA (DIGSA [7]) [%]	Post-emergence action against VERPE (VERPE [8]) [%]	Pre-emergence action against STEME (STEME [9]) [%]	Post-emergence action against AMARE (AMARE [10]) [%]	Pre-emergence action against AMARE (AMARE [11]) [%]	Post-emergence action against DIGSA (DIGSA [12]) [%]	Pre-emergence action against SETVI (SETVI) [%]	Post-emergence action against MATIN (MATIN [13]) [%]	Pre-emergence action against LOLRI (LOLRI) [%]	other results
O=C(O)C1CCCN(C(=O)COc2nn(-c3ccccc3F)c(-c3cncc(F)c3)c2Br)C1 (centres unmarked) [Example X-033]	100	90	90	100	100	90	100	90	100	90	90	90	100	–	Pre-emergence action against ALOMY (ALOMY [3]): 90%
O=C(COc1nn(-c2ccc(F)cc2F)c(-c2ccc(F)cn2)c1Br)NO [II-018]	–	–	–	–	–	–	–	–	100	–	–	–	90	–	–
COC(=O)COc1nn(-c2cc(F)ccc2F)c(-c2ccnc(F)c2)c1C#N [VIII-008]	100	100	100	100	100	100	90	100	90	100	90	100	90	100	Post-emergence action against STEME (STEME [14]): 90%; Pre-emergence action against ECHCG (ECHCG): 100%
COC(=O)C(C)Oc1nn(-c2ccccc2)c(-c2ccc(C)nc2)c1Cl (centres unmarked) [VII-013]	–	–	100	–	100	90	100	–	–	–	90	–	–	–	–
N#CCCNC(=O)COc1nn(-c2ccccc2F)c(-c2ccc(F)cn2)c1Br [II-005]	–	–	–	–	–	–	–	–	–	90	–	–	–	–	–
COC(=O)[C@@H](C)Oc1nn(-c2ccccc2F)c(-c2cnccn2)c1Br [Example I-001]	–	90	100	–	100	90	–	100	90	100	–	90	–	90	Pre-emergence action against ALOMY (ALOMY [3]): 90%
COC(=O)CNC(=O)COc1nn(-c2ccccc2F)c(-c2ccc(F)cn2)c1Br [II-013]	90	90	100	90	100	100	90	100	–	90	–	100	90	100	Pre-emergence action against ALOMY (ALOMY [3]): 90%; Pre-emergence action against ECHCG (ECHCG): 90%
COC(=O)C(C)Oc1nn(-c2ccccc2)c(-c2ccc(Cl)nc2)c1Cl (centres unmarked) [VII-017]	–	–	100	–	90	90	100	–	–	90	90	–	–	–	–
COC(=O)[C@@H](C)Oc1nn(-c2ccccc2F)c(-c2cncnc2)c1Cl [VI-017]	–	100	100	–	90	–	–	90	90	100	–	–	–	–	Pre-emergence action against ALOMY (ALOMY [3]): 90%
CCOC(=O)COc1nn(-c2ccccc2F)c(-c2ccnnc2)c1C#N [IV-003, Ethyl {[4-cyano-1-(2-fluorophenyl)-5-(pyridazin-4-yl)-1H-pyrazol-3-yl]oxy}acetate]	–	–	–	100	–	–	–	–	90	–	–	–	–	–	pest or weed control at 1280 g/ha (MATIN [2]; Tripleurospermum inodorum, 504 h): 90%; pest or weed control at 1280 g/ha (VERPE [4]; Veronica persica, 504 h): 100%; pest or weed control at 1280 g/ha (POAAN [6]; Poa annua, 504 h): 90%; pest or weed control at 1280 g/ha (VERPE [8]; Veronica persica, 504 h): 90%; pest or weed control at 1280 g/ha (STEME [9]; Stellaria media, 504 h): 100%; pest or weed control at 1280 g/ha (AMARE [11]; Amaranthus retroflexus, 504 h): 90%; pest or weed control at 1280 g/ha (SETVI; Setaria viridis, 504 h): 100%
O=C(COc1nn(-c2ccccc2F)c(-c2ccc(F)nc2)c1Br)N1CCSC1=O [Example X-011]	100	90	100	90	100	100	90	–	90	100	–	100	100	–	Pre-emergence action against ECHCG (ECHCG): 100%
CCOC(=O)COc1nn(-c2ccccc2F)c(-c2cnc(F)c(F)c2)c1Br [VII-148]	100	90	90	100	100	100	–	90	100	100	100	90	100	90	Pre-emergence action against ECHCG (ECHCG): 90%
CSc1c(OCC(=O)O)nn(-c2ccccc2F)c1-c1ccc(F)nc1 [VII-056]	100	90	–	100	90	100	90	90	100	90	90	90	100	90	–
CCOC(=O)COc1nn(-c2ccccc2F)c(-c2ccc(F)nc2)c1SC [VII-021]	–	–	–	–	90	–	–	–	–	90	–	–	–	–	–
CCOC(=O)COc1nn(-c2ccccc2F)c(-c2ccc(OCC)nc2)c1Br [VII-127]	–	–	–	–	–	–	–	90	–	–	–	–	–	–	–
COC(=O)COc1nn(-c2ccccc2F)c(-c2ccc(OC)nc2)c1Br [VII-022]	–	–	90	–	–	–	90	–	–	–	–	–	–	–	–
